A value given as a limit tells only on which side of the number the result lay.

For one assay, the target named is human P2X7 receptor (Homo sapiens, UniProt Q99572, R270H/Y155H). Kind of assay: Evaluation of human P2X7 receptor inhibitory activity (Yo-Pro uptake, BzATP stimulation, FLIPR TETRA). It is filed as cell-based. The conditions noted are these: 1321N1 cells stably expressing human P2X7 receptor; BzATP stimulation, Yo-Pro uptake; read-out: IC50 (antagonistic activity for the human P2X7 receptor). In outline:
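Yo-Pro dye uptake triggered by BzATP was monitored by FLIPR in human P2X7-transfected 1321N1 cells (SNP variant) in HEPES-buffered HBSS, pH 7.4-7.5. Compound was dispensed 8 min post-stimulation, then signal read for 20 min; IC50 derived logistically from inhibition of the fluorescence range.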
As usually defined, the IC50 is the concentration that inhibits the measured activity by half. Take `CCc1cc2c(cc1Nc1nc(=O)c(OC)cn1Cc1ccccc1F)CCC2` [Compound I-0178]: the IC50 turned out to be 21 nM.

With `COc1cc(C)c(Nc2cc(=O)c(OC)cn2Cc2ccccc2)cc1C` [Compound I-0945], the IC50 worked out at 170 nM.

With `COc1cn(Cc2ccc(F)c(Cl)c2)c(Oc2cc3sc(C)nc3cc2C)cc1=O` [Compound I-0966], the IC50 turned out to be 480 nM.

With `Cc1c(Nc2nc(=O)cnn2Cc2cc(F)c(F)c(F)c2)ccc2[nH]ccc12` [Compound I-1263], the IC50 stood at 3 nM.

With `COc1cn(Cc2ccc(F)cc2)c(Nc2cc3c(cc2C)OCCO3)nc1=O` [Compound I-0289], the concentration for half-maximal inhibition (IC50) worked out at 27 nM.

For `COc1cn(Cc2ccc(F)c(Cl)c2)c(Nc2cc3ncccc3cc2C)nc1=O` [Compound I-0771], the IC50 worked out at 43 nM.

In the case of `COc1cn(Cc2cc(F)cc(F)c2)c(Nc2cc(C)c(F)cc2C)nc1=O` [Compound I-0437], the IC50 was 8 nM.

In the case of `COc1cn(Cc2ccccc2)c(Nc2cccc3c2CCC3)nc1=O` [Compound I-0062], the IC50 was found to be 590 nM.

As to `COc1cc(C)cc(Nc2nc(=O)c(OC)cn2Cc2cccc(F)c2)c1C` [Compound I-0405], the IC50 worked out at 2 nM.

Still in this assay, the particulars now being: 1321N1 cells stably expressing human P2X7 receptor; BzATP stimulation, Yo-Pro uptake; read-out: IC50 (antagonistic activity for the human P2X7 receptor), class symbol.
As for `COc1cn(Cc2ccccc2)c(Nc2cc(N3CCCC3=O)ccc2C)nc1=O` [Compound I-0393], the IC50 lay in the range of 10 to 100 nM.

`COc1cn(Cc2ccc(F)c(F)c2)c(Nc2cc(OC(C)C)ccc2C)nc1=O` [Compound I-0555]: the IC50 fell in the range of 10 to 100 nM.

Take `CCc1cc(Cl)ccc1Nc1nc(=O)c(OC)cn1Cc1cc(F)cc(F)c1` [Compound I-0542]: the IC50 was 10 to 100 nM.

As to `COc1cn(Cc2ccccc2)c(Nc2cc(F)c(F)cc2C)nc1=O` [Compound I-0359], the IC50 lay in the range of 500 to 1000 nM.

On to `COc1cn(Cc2cc(F)cc(F)c2)c(Nc2cccc(C)c2C)nc1=O` [Compound I-0326], for which the IC50 is < 10 nM.

With `COc1cn(Cc2ccc(F)cc2)c(Nc2cc(C)c(C)cc2C)nc1=O` [Compound I-0162], the IC50 was < 10 nM.

Take `COc1cn(Cc2cc(F)cc(Cl)c2)c(Nc2cc(C)c(OC(F)F)cc2C)nc1=O` [Compound I-0529]: the IC50 is 10 to 100 nM.

As to `CCNC(=O)c1cn(Cc2ccccc2)c(Nc2cccc(Cl)c2C)nc1=O` [Compound I-0078], the IC50 is 100 to 500 nM.

In the case of `Cc1c(Cl)cccc1Nc1nc(=O)c(C(=O)NCC(F)(F)F)cn1Cc1ccccc1` [Compound I-0098], the IC50 lay in the range of 500 to 1000 nM.

Regarding `COc1cn(Cc2cc(F)cc(Cl)c2)c(Nc2cc(C)c(F)cc2C)nc1=O` [Compound I-0508], the IC50 lay within 10 to 100 nM.

Take `COc1cn(Cc2ccccc2)c(Nc2cc3c(cc2C)OCCO3)nc1=O` [Compound I-0287]: the IC50 was 10 to 100 nM.

Turning to `COc1cn(Cc2ccc(F)c(Cl)c2)c(Nc2cc(F)c(F)cc2C)nc1=O` [Compound I-0360], the IC50 was in the range of 10 to 100 nM.

As to `CCc1ccc(CC)c(Nc2nc(=O)c(OC)cn2Cc2ccccc2)c1` [Compound I-0211], the IC50 is < 10 nM.

`COc1cn(Cc2ccccc2)c(Nc2cccc(C(F)(F)F)c2C)nc1=O` [Compound I-0085]: the concentration for half-maximal inhibition (IC50) lay in the range of 10 to 100 nM.

`COc1cn(Cc2ccccc2C)c(Nc2cccc(Cl)c2C)nc1=O` [Compound I-0043]: the IC50 was 100 to 500 nM.

For the compound `COc1cn(Cc2ccccc2)c(Nc2cccc(C)c2C)nc1=O` [Compound I-0095], the IC50 is 10 to 100 nM.

As to `COc1cn(Cc2ccc(F)c(Cl)c2)c(Nc2cc(C)c(OC(F)F)cc2C)nc1=O` [Compound I-0244], the IC50 is < 10 nM.

Consider `COc1cn(Cc2cc(F)cc(F)c2)c(Nc2cccc(OC(C)C)c2C)nc1=O` [Compound I-0514], for which the IC50 fell in the range of 10 to 100 nM.

Consider `COc1cn(Cc2ccccc2)c(Nc2cccc(Oc3ccccn3)c2C)nc1=O` [Compound I-0198], for which the IC50 fell in the range of 100 to 500 nM.

`CCc1cc(Cl)ccc1Nc1nc(=O)c(OC)cn1Cc1ccc(F)c(Cl)c1` [Compound I-0545]: the IC50 is < 10 nM.

For the compound `COc1cn(Cc2ccc(F)c(Cl)c2)c(Nc2cccc3sccc23)nc1=O` [Compound I-0486], the IC50 was < 10 nM.

Consider `CCc1cc(OC)c(OC)cc1Nc1nc(=O)c(F)cn1Cc1cccc(Cl)c1` [Compound I-0350], for which the IC50 was < 10 nM.

In the case of `COc1cn(Cc2ccc(F)c(Cl)c2)c(Nc2cccc3[nH]c(C)cc23)nc1=O` [Compound I-0489], the IC50 is < 10 nM.

`COc1cn(Cc2ccccc2OC(F)F)c(Nc2cccc(Cl)c2C)nc1=O` [Compound I-0462]: the IC50 fell in the range of 10 to 100 nM.

On to `COc1cn(Cc2cc(F)cc(F)c2)c(Nc2cccc(Cl)c2C)nc1=O` [Compound I-0002], for which the IC50 is < 10 nM.

As to `CCc1ccc(F)cc1Nc1nc(=O)c(OC)cn1Cc1ccc(F)cc1` [Compound I-0565], the IC50 was 100 to 500 nM.

For the compound `COc1cn(Cc2ccccc2)c(Nc2ccc(OC(C)C)cc2C)nc1=O` [Compound I-0191], the IC50 is 100 to 500 nM.

With `COc1cn(Cc2ccc(F)c(Cl)c2)c(Nc2cc(C)cc3[nH]ccc23)nc1=O` [Compound I-0396], the IC50 was < 10 nM.

As to `CCc1cc(OC)c(OC)cc1Nc1nc(=O)c(F)cn1Cc1ccc(F)cc1` [Compound I-0267], the IC50 is < 10 nM.

For `Cc1c(Cl)cccc1Nc1nc(=O)c(CC(=O)NCC#N)cn1Cc1ccccc1` [Compound I-0344], the IC50 lay in the range of 100 to 500 nM.

With `COc1cn(Cc2cccc(OC(F)(F)F)c2)c(Nc2cccc(Cl)c2C)nc1=O` [Compound I-0304], the IC50 fell in the range of 500 to 1000 nM.

Regarding `COc1cc(C)cc(Nc2nc(=O)c(OC)cn2Cc2ccc(F)c(Cl)c2)c1C` [Compound I-0449], the IC50 is < 10 nM.

The same assay, now with this note: antagonistic activity for the human P2X7 receptor; read-out: IC50.
As to `COCc1ccc(C)c(Nc2nc(=O)c(F)cn2Cc2ccc(F)c(F)c2)c1` [Compound I-1084], the IC50 is < 10 nM.

In the case of `COc1cn(Cc2cc(F)cc(Cl)c2)c(Nc2cc(-c3cccnc3)ccc2C)nc1=O` [Compound I-0765], the IC50 lay within 10 to 100 nM.

As to `COc1cn(Cc2ccc(F)c(Cl)c2)c(Nc2cc3c(cc2C)OC(F)(F)C(F)(F)O3)nc1=O` [Compound I-0823], the IC50 is 100 to 500 nM.

`Cc1cc2[nH]ccc2cc1Nc1nc(=O)c(F)cn1Cc1ccc(F)c(F)c1` [Compound I-1043]: the IC50 was < 10 nM.

As for `COc1cn(Cc2cc(F)cc(Cl)c2)c(Nc2cc(N3CCCC3=O)ccc2C)nc1=O` [Compound I-0647], the IC50 lay within 10 to 100 nM.

For `COc1cn(Cc2cc(F)c(F)c(F)c2)c(Nc2cc(OCC(F)(F)F)ccc2C)nc1=O` [Compound I-0932], the IC50 lay in the range of 10 to 100 nM.

`Cc1cc(C)c(Nc2nc(=O)c(Br)cn2Cc2cc(F)cc(F)c2)cc1C` [Compound I-1113]: the IC50 is < 10 nM.

As for `CCOc1ccc(C)c(Nc2nc(=O)c(F)cn2Cc2ccc(F)c(F)c2)c1` [Compound I-0999], the IC50 was < 10 nM.

On to `Cc1nn(Cc2cc(F)c(F)c(F)c2)c(Nc2ccc3[nH]ccc3c2C)nc1=O` [Compound I-1262], for which the half-maximal inhibitory concentration (IC50) was < 10 nM.

Consider `Cc1ccc(-c2cccn(C)c2=O)cc1Nc1nc(=O)c(C)cn1Cc1cc(F)c(F)c(F)c1` [Compound I-1143], for which the IC50 is 10 to 100 nM.

On to `COc1cn(Cc2ccccc2)c(Nc2cc3c(cc2C)OC(F)(F)O3)nc1=O` [Compound I-0711], for which the IC50 is 100 to 500 nM.

`COc1cc(C)c(Nc2nc(=O)c(C(N)=O)cn2Cc2cc(F)c(F)c(F)c2)cc1C` [Compound I-1081]: the IC50 was 10 to 100 nM.

Turning to `Cc1cc(OC(F)F)c(C)cc1Nc1nc(=O)c(Cl)cn1Cc1ccc(F)c(Cl)c1` [Compound I-0837], the IC50 is < 10 nM.

For the compound `COc1cn(Cc2ccccc2)c(Nc2cc(-c3cccn(C)c3=O)c(F)cc2C)nc1=O` [Compound I-0590], the IC50 lay within 10 to 100 nM.

As for `COc1cc(C)c(Nc2nc(=O)c(C(=O)O)nn2Cc2cc(F)c(F)c(F)c2)cc1OC` [Compound I-1251], the IC50 was 10 to 100 nM.

On to `O=c1nc(Nc2cccc3c2CCCO3)n(Cc2cc(F)c(F)c(F)c2)cc1F` [Compound I-1173], for which the IC50 is < 10 nM.

With `COc1cn(Cc2cc(F)c(F)c(F)c2)c(Nc2cc3c(cc2C)OCCC3)nc1=O` [Compound I-0917], the IC50 fell in the range of 10 to 100 nM.

`COc1cn(Cc2ccccc2)c(Nc2cc(-c3cnccn3)ccc2C)nc1=O` [Compound I-0663]: the IC50 is 10 to 100 nM.

As to `COc1cn(Cc2ccccc2)c(Nc2cc(-c3cscn3)ccc2C)nc1=O` [Compound I-0750], the IC50 lay in the range of 10 to 100 nM.

`COc1nc(C)c(Nc2nc(=O)c(F)cn2Cc2ccc(F)c(Cl)c2)cc1C` [Compound I-1004]: the IC50 is < 10 nM.

On to `COc1cc(C)c(Nc2nc(=O)c(OC)cn2Cc2ccccc2)cc1F` [Compound I-0718], for which the IC50 is 10 to 100 nM.

`Cc1cc(Nc2nc(=O)c(F)cn2Cc2cc(F)cc(F)c2)c(Cl)cc1F` [Compound I-1224]: the IC50 was < 10 nM.

Turning to `COc1ccc(C)c(Nc2nc(=O)c(F)cn2Cc2ccc(F)c(F)c2)c1` [Compound I-1068], the IC50 was < 10 nM.

Regarding `CCOc1cc(Nc2nc(=O)c(OC)cn2Cc2ccc(F)c(Cl)c2)c(C)cc1F` [Compound I-0919], the IC50 lay in the range of 10 to 100 nM.

Regarding `Cc1cc(OC(F)F)c(C)cc1Nc1nc(=O)c(Cl)cn1Cc1cc(F)cc(F)c1` [Compound I-0839], the IC50 was < 10 nM.

`COCCOc1cc(Nc2nc(=O)c(F)cn2Cc2cc(F)c(F)c(F)c2)c(C)cc1F` [Compound I-1204]: the IC50 was < 10 nM.

As to `CCc1cc2c(cc1Nc1nc(=O)c(OC)cn1Cc1ccc(F)c(Cl)c1)OC(F)(F)O2` [Compound I-0730], the IC50 was 10 to 100 nM.

With `CCOC(=O)c1cn(Cc2cc(F)c(F)c(F)c2)c(Nc2ccc(OC)cc2C)nc1=O` [Compound I-1080], the IC50 lay within 10 to 100 nM.

On to `Cc1c(F)cccc1Nc1nc(=O)c(F)cn1Cc1ccc(F)c(Cl)c1` [Compound I-1213], for which the IC50 was < 10 nM.

Take `CCOc1cn(Cc2ccccc2)c(Nc2cc(OC)c(OC)cc2CC)nc1=O` [Compound I-0893]: the IC50 was < 10 nM.

These data come from patent US10774051B2, “6-membered heterocyclic derivatives and pharmaceutical composition comprising the same” (Shionogi & Co., Ltd., priority 2015, dated 2020).
